Measured values as given in paper PMC7317746 (Environmental and Molecular Mutagenesis, 2020).

System: male Sprague Dawley rats
Experiment: Pig‐a assay
Format: in vivo, rat
[1] = 1-Month Study, 40 mg/kg/day Days 1-3, Day 15, positive control
[2] = 1-Month Study, 40 mg/kg/day Days 1-3, Day 29, positive control
[3] = 1-Month Study, 40 mg/kg/day, Day -1 (pre-treatment)
[4] = 3-Day Study, 40 mg/kg/day Days 1-3, Day 15, positive control
[5] = 3-Day Study, 40 mg/kg/day Days 1-3, Day 30, positive control
[6] = 3-Day Study, 40 mg/kg/day Days 1-3, Day 45, positive control
[7] = 3-Day Study, 40 mg/kg/day, Day -4 (pre-treatment)

**Q.** What does the source list for `CCN(N=O)C(N)=O` [ENU, N‐ethyl‐N‐nitrosourea]?
**A.** %RETs mean ± SD [1]: 3.1 ± 0.4%; Number of CD59‐Neg RBCs per 10^6 RBCs mean ± SD [1]: 79.5 ± 12.3 per 10^6 RBCs; Number of CD59‐Neg RETs per 10^6 RETs mean ± SD [1]: 356.2 ± 64.4 per 10^6 RETs; %RETs mean ± SD [2]: 3.7 ± 0.7%; Number of CD59‐Neg RBCs per 10^6 RBCs mean ± SD [2]: 211.0 ± 26.9 per 10^6 RBCs; Number of CD59‐Neg RETs per 10^6 RETs mean ± SD [2]: 291.4 ± 33.7 per 10^6 RETs; %RETs mean ± SD [3]: 4.8 ± 0.7%; Number of CD59‐Neg RBCs per 10^6 RBCs mean ± SD [3]: 0.6 ± 0.3 per 10^6 RBCs; Number of CD59‐Neg RETs per 10^6 RETs mean ± SD [3]: 0.5 ± 0.5 per 10^6 RETs; %RETs mean ± SD [4]: 3.3 ± 1.1%; Number of CD59‐Neg RBCs per 10^6 RBCs mean ± SD [4]: 97.7 ± 7.2 per 10^6 RBCs; Number of CD59‐Neg RETs per 10^6 RETs mean ± SD [4]: 414.2 ± 6.5 per 10^6 RETs; %RETs mean ± SD [5]: 3.3 ± 0.6%; Number of CD59‐Neg RBCs per 10^6 RBCs mean ± SD [5]: 256.7 ± 62.0 per 10^6 RBCs; Number of CD59‐Neg RETs per 10^6 RETs mean ± SD [5]: 282.7 ± 77.4 per 10^6 RETs; %RETs mean ± SD [6]: 2.7 ± 0.7%; Number of CD59‐Neg RBCs per 10^6 RBCs mean ± SD [6]: 382.7 ± 26.3 per 10^6 RBCs; Number of CD59‐Neg RETs per 10^6 RETs mean ± SD [6]: 305.9 ± 59.5 per 10^6 RETs; %RETs mean ± SD [7]: 3.2 ± 0.4%; Number of CD59‐Neg RBCs per 10^6 RBCs mean ± SD [7]: 0.4 ± 0.1 per 10^6 RBCs; Number of CD59‐Neg RETs per 10^6 RETs mean ± SD [7]: 1.6 ± 0.7 per 10^6 RETs
